In the METLIN SMRT retention time set (Domingo-Almenara et al. 2019):

Test: gradient 5% acetonitrile 3 min, to 50% in 2 min, to 85% in 15 min, held 3 min, 100 µL/min
Conditions: column: Zorbax Extend-C18 2.1 x 50 mm; eluents: water / acetonitrile, 0.1% formic acid
Summary of the method: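 In both positive and negative ionization mode, a quadrupole time-of-flight mass spectrometer coupled to HPLC analyzed pure standards run in mixtures of ~100 molecules. The Zorbax Extend-C18 column (2.1 × 50 mm, 1.8 μm) was operated at 100 μL/min with water and acetonitrile, each containing 0.1% formic acid. The dead volume was 40 μL and the dwell volume 900 μL. Retention time came from adduct peaks that were computationally picked and individually inspected by hand.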

SMILES	RP-LC retention time [s]
CC(C)n1c(=O)sc2cc(S(=O)(=O)N3CCC(C(=O)NCc4ccccn4)CC3)ccc21	660
COc1ccc(NC(=O)c2noc3c2CCCCC3)cc1OC	907
COc1cccc(S(=O)(=O)N2CCC(c3nc(C(=O)N(C)C)c(C)o3)CC2)c1	794
Cc1cccc(NC(=O)N2[C@H]3CC[C@@H]2c2cncnc2C3)c1	674
CCCCCC[C@H]1C(=O)O[C@H](C)[C@H](NC(=O)c2cccc(NC=O)c2O)C(=O)O[C@@H](C)[C@@H]1OC(=O)CC(C)C	1100
CC(C)c1ccc(-c2nc(C3CC(=O)N(c4ccc(Cl)cc4)C3)no2)cc1 (configuration not stated)	1300
O=C(NC(Cc1ccccc1)C(=O)N1CCN(c2ccccn2)CC1)c1cccc(Cl)c1 (configuration not stated)	698
CCc1sc(NC(=O)CCS(=O)(=O)Cc2ccccc2)nc1-c1ccccc1	948
O=C(CSc1ccc(N2CCCC(C(=O)NC3CC3)C2)nn1)Nc1ccc(F)cc1Cl (configuration not stated)	675
COc1ccc(CC(C)(O)CNC(=O)Nc2ccccc2OC)cc1 (configuration not stated)	750
Cc1ccc(CNC(=O)C2(C)CCCN(C(=O)Nc3cccc(Cl)c3C)C2)cc1 (configuration not stated)	1060
COc1ccc(-c2[nH]ncc2CN2CCC3(CCC3O)CC2)cc1 (configuration not stated)	584
Cc1ccc(-c2cc3c(=O)n(Cc4noc(CN5CCCCCCC5)n4)ccn3n2)cc1	757
COc1ccc(C(C)NC(=O)C2C(=O)NC3(C)CC2c2ccccc2O3)cc1 (configuration not stated)	747
Clc1cccc(-c2nnc(-c3nc(NCc4cccnc4)c4ccccc4n3)o2)c1	705
O=C1NCCN2CC3(CCN(S(=O)(=O)c4cccc5cccnc45)CC3)CC12 (configuration not stated)	581
CN(CCNC(=O)c1cc(S(=O)(=O)N2CCCCC2)ccc1Cl)Cc1ccccc1	711
C(=C\c1ccccn1)/c1ccccn1	590
O=C1CCCc2cc(S(=O)(=O)NCCCN3CCN(Cc4ccccc4)CC3)ccc2N1	581
CC(=O)N1c2ccc(S(=O)(=O)N3CCCCC3)cc2CC1C(=O)Nc1c(C)cc(C)cc1C (configuration not stated)	955
Cc1c(C(=O)N2CCN(C(=O)c3ccco3)CC2)[nH]c2ccccc12	729
CCC1=C(C(=O)Nc2ccccc2)C2CCCC3(C2)NCCCN13 (configuration not stated)	611
CCc1noc([C@@H]2CC(F)(F)CN2C(=O)c2ccco2)n1	755
COc1cccc2cc(C(=O)NCC3CCN(C(=O)c4snnc4C)CC3)oc12	697
COC[C@@H]1CN(S(=O)(=O)c2cccc(C)c2)C[C@H]1c1ccccn1	651

SMILES	RP-LC retention time [s]
CC1CCC(NC(=O)C2CCN(C(=O)c3ncn4c3COC(c3ccc(F)cc3)C4)CC2)CC1 (configuration not stated)	826
O=C(NC1CCCCC1)c1ccc2ccnc(N3CCN(c4ccccc4)CC3)c2c1	851
O=C1NCCCn2cc(S(=O)(=O)N3CCN(c4cccc(C(F)(F)F)c4)CC3)cc21	830
COc1cccc2c1OC1(C)CC2C(S(=O)(=O)c2ccc(C(C)C)cc2)C(=O)N1C (configuration not stated)	1040
COc1cc(Nc2c(C(=O)N3CCCC3)cnc3nc(C)ccc23)cc(OC)c1OC	592
CCCc1noc(-c2ccnc(-n3ncc(C(=O)N4CCCC4)c3C)c2)n1	896
CC(C)N1CCn2cc(S(=O)(=O)NCc3ccccc3Cl)cc2C1=O	769
Cc1ccccc1Cc1nc(-c2cccc(-c3ccn[nH]3)c2)no1	985
CC1CCN(CCNC(=O)C2CCN(S(=O)(=O)c3ccc4c(c3)sc(=O)n4C)CC2)CC1	622
Clc1cccc(Cc2nc(-c3ccc4nncn4c3)no2)c1	827
CCOC(=O)c1[nH]c(C)c(CN(Cc2ccco2)C(=O)c2ccco2)c1C	902
CCN1CCN(CCCNc2nnc(-c3nc(C4CC4)no3)c3ccccc23)CC1	584
CCc1ccccc1NC(=O)Cn1nc2nc(N3CCCC(C)C3)ccn2c1=O (configuration not stated)	838
CCCNC(=O)C1CCCN(c2ccc(SCC(=O)Nc3ccc(Cl)cc3F)nn2)C1 (configuration not stated)	733
CCOC(=O)C1CCC(CNC(=O)Nc2cc3c(cc2N2CCCC2)n(C)c(=O)n3C)CC1 (configuration not stated)	638
NC(=O)c1cc(=O)[nH]c2ccccc12	546
NS(=O)(=O)c1ccc(NC(=O)NC2CC(=O)N(c3ccc(Cl)cc3)C2)cc1 (configuration not stated)	657
CCNC(=O)c1cc2c(-c3cc(OCCN4CCCC4)c(Cl)cc3Cl)nc(N)nc2s1	711
CCC(=O)Nc1ccc(OCc2cc(C(=O)NC3CCC(C)CC3)no2)cc1 (configuration not stated)	601
COc1ccc(-c2noc(Cc3nnc(-c4ccc(OC)cc4)o3)n2)cc1	949
O=C(NCc1ccc(F)cc1)N1CCC(c2noc(-c3ccccn3)n2)C1 (configuration not stated)	813
O=C(NC1CC1)c1ccc(OCC2CCN(C(=O)C3(c4ccccc4)CC3)CC2)cc1	859
COc1ccc2c(c1)C1(CCN(S(=O)(=O)c3ccc(Br)cc3)C1)C(=O)N2 (configuration not stated)	881
Cc1occc1C(=O)N1CC(F)(F)C[C@H]1c1nc(C2CC2)no1	726

Further lines, results first:

RP-LC retention time [s]	SMILES
613	Cc1cccc(Nc2cc(C)nc3ccnn23)c1
1350	COC(=O)c1cnc(N2CCN(c3cccc(Cl)c3)CC2)c2ccccc12
696	Cc1ccc(-c2[nH]c3[nH]c(=O)[nH]c(=O)c3c2C2C(=O)N(C)c3ccccc32)cc1 (configuration not stated)
660	Cc1ccc(-c2c(N3CCN(c4ccccn4)CC3)c(=O)c2=O)cc1
753	COC(=O)c1ccc2c(=O)n(-c3cc(F)cc(F)c3)c(N3CCN(c4ccccn4)CC3)nc2c1
975	Cc1ccc(NC(=O)c2cc3c(=O)n(C)c4ccccc4n3n2)cc1F
575	CCc1ccc(N2C(=O)Nc3ccccc3C2(O)C(=O)NCCN(CC)CC)cc1 (configuration not stated)
1040	O=C(Nc1ccc2c(c1)OCCO2)C1CCCN(c2ncc(-c3cccc(F)c3)cn2)C1 (configuration not stated)
672	Cn1cc(-c2ccncc2)cc1C(=O)NCc1ccccc1C(F)(F)F
802	CCNC(=O)Cn1c(=O)c2cnc(-c3ccccc3)nc2n(CC)c1=O
1010	CCCC(C(=O)O)c1c(C)nc2ccc(Cl)cc2c1-c1ccccc1 (configuration not stated)
699	O=C(CSc1nc2ccccc2[nH]c1=O)Nc1ccccc1
1030	COc1ccc(-c2noc(C3CCCN3C(=O)Nc3ccc(F)c(Cl)c3)n2)cc1 (configuration not stated)
854	Cc1cc(N2C=C(C(=O)N3CCCC3)S(=O)(=O)c3ccc(F)cc32)ccc1F
1010	O=C(c1ccccc1Br)N1CCc2nc(-c3ccc(F)cc3)ncc2C1
1150	CCOc1ccc(NC(=O)c2cc3c(=O)n(CC(C)C)c4ccccc4n3n2)cc1
909	O=C(c1c(F)cccc1F)N1CCc2nc(-c3ccccc3)ncc2C1
770	COc1ccc(-c2csc(NC(=O)Nc3c(F)cccc3F)n2)cc1OC
710	Cc1cc(C)cc(NC(=O)Cn2cnc(C)c(C)c2=O)c1

RP-LC retention time [s]	SMILES
920	O=C([C@@H]1C[C@H](F)CN1S(=O)(=O)c1cccc(F)c1)N1CCc2ccccc2C1
941	Cc1cc2nn(CC(=O)N3CCC(C)CC3)c(=O)n2c(Nc2ccc(C)c(C)c2)n1
1010	CC1Oc2ccccc2N(Cc2nc(-c3ccc4c(c3)OCO4)no2)C1=O (configuration not stated)
828	CCN1c2ccc(C)cc2C(=O)NC12CCN(C(=O)c1ccc(F)cc1)CC2
862	COC(=O)C1=CN(c2ccc(C)cc2)c2ccccc2S1(=O)=O
833	CC(C)Sc1ccc(CC(=O)NCC2CCN(C(=O)c3ccccc3F)CC2)cc1
849	COC(=O)c1ccc(NC(=O)Cc2csc3nc(-c4ccc(C)c(C)c4)cn23)cc1
720	C=CCNC(=O)Cn1c2c(c(=O)n3nc(-c4ccc(C)cc4)nc13)CCC2
584	CCn1c(=O)cc(OCC(=O)N2CCN(c3ccccn3)CC2)c2ccccc21
626	Cc1nn(CC(=O)N2CCN(C)CC2)c(=O)c2cc(-c3ccccc3)nn12
967	COCCn1cc2c3c(cccc31)CN(C(=O)Cc1c(F)cccc1Cl)CC2
780	Cc1ccc(Nc2c(-c3cccc(Cl)c3)nc3ccccn23)cc1
1050	CCn1c(=O)n(-c2ccc(F)cc2)c2nc(-c3ccc(F)c(F)c3)nc(C(N)=O)c21
834	COc1cccc(NC(=O)Cn2c(=O)n(-c3ccc(F)cc3)c(=O)c3c2cc(C)n3C)c1
1130	COc1ccc(N2CCN(c3cc(SCC(=O)Nc4cc(Cl)ccc4C)ncn3)CC2)cc1
612	CCOC(=O)C1=C(CN2CCN(c3ccccn3)CC2)NC(=O)NC1c1ccc(OC)cc1 (configuration not stated)
709	CN(C)c1cccc(C(=O)NCc2nn(C)c3ccccc23)c1
1180	Cc1ccc(-c2noc(Cn3c(=O)n(Cc4ccc5c(c4)OCO5)c(=O)c4sccc43)n2)cc1C
678	Cc1ccc(-c2ccc(=O)n(CCCC(=O)Nc3ccc(-c4ccc(=O)[nH]n4)cc3)n2)cc1
